Converted amounts (≈) assume the structure as drawn. Like-named read-outs stand apart in the source and are kept apart here.
Tests used:
[1] = test system: E. coli 25922; test: Minimal inhibitory concentration, E. coli 25922; format: cell-based; settings: 16 hour minimal inhibitory concentration at 37° C., read-out: MIC (μM) E. coli 25922
How it was run: (§1)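 Growth at 600 nm after 16 h at 37 °C without shaking defines the MIC, taken as the lowest compound concentration that prevents growth and expressed in µM. Cultures grown to saturation in LB, or TSA for S. aureus, were diluted 1:100 twice before twofold serial compound dilution.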

[2] = test system: S. aureus RN4220; test: Minimal inhibitory concentration, S. aureus RN4220; format: cell-based; settings: 16 hour minimal inhibitory concentration at 37° C., read-out: MIC (μM) S. aureus RN4220
How it was run: as §1

[3] = test system: WT E. coli; test: Minimal inhibitory concentration in wild-type E. coli; format: cell-based, Escherichia coli; settings: wild-type E. coli, 37° C., 16 hours, read-out: MIC (μM) in WT E. coli
How it was run: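 Broth microdilution: saturated LB overnight culture diluted 1:100 twice, compound serially two-fold diluted across the plate from DMSO stock. Static incubation 16 hours at 37° C, OD600 read; MIC taken as lowest concentration inhibiting growth.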

[4] = test system: A. baumannii 19606; test: Minimal inhibitory concentration, A. baumannii 19606; format: cell-based; settings: 16 hour minimal inhibitory concentration at 37° C., read-out: MIC (μM) A. baumannii 19606
How it was run: as §1

[5] = test system: E. coli MC4100; test: Minimal inhibitory concentration, E. coli MC4100; format: cell-based; settings: 16 hour minimal inhibitory concentration at 37° C., read-out: MIC (μM) E. coli MC4100 ara+
How it was run: as §1

[6] = test system: E. cloacae 13047; test: Minimal inhibitory concentration, E. cloacae 13047; format: cell-based; settings: 16 hour minimal inhibitory concentration at 37° C., read-out: MIC (μM) E. cloacae 13047
How it was run: as §1

[7] = test system: S. aureus MW2; test: Minimal inhibitory concentration, S. aureus MW2; format: cell-based; settings: 16 hour minimal inhibitory concentration at 37° C., read-out: MIC (μM) S. aureus MW2 (MRSA)
How it was run: as §1

[8] = test system: K. pneumoniae 700721; test: Minimal inhibitory concentration, K. pneumoniae 700721; format: cell-based; settings: 16 hour minimal inhibitory concentration at 37° C., read-out: MIC (μM) K. pneumoniae 700721
How it was run: as §1

[9] = Staphylococcus aureus, RN4220, 16 h
[10] = Acinetobacter baumannii, 19606, 16 h
[11] = Staphylococcus aureus, MRSA, 16 h

Compound | MIC ([1]; Escherichia coli, 25922, 16 h) [µM] | MIC [2, 9] [µM] | MIC ([3]; Escherichia coli) [µM] | MIC [4, 10] [µM] | MIC ([5]; Escherichia coli, MC4100, 16 h) [µM] | MIC ([6]; Enterobacter cloacae, 13047) [µM] | MIC [7, 11] [µM] | MIC ([8]; Klebsiella pneumoniae, 700721) [µM] | MIC [1] [µM] | MIC [2] [µM] | MIC [3] [µM] | MIC [4] [µM] | MIC [5] [µM] | MIC [6] [µM] | MIC [7] [µM] | MIC [8] [µM]
CO[C@@H]1[C@@H](OC(N)=O)[C@@H](O)[C@H](Oc2ccc3c(O)c(NC(=O)c4cccc(-c5ccccn5)c4)c(=O)oc3c2C)OC1(C)C [Compound 31] | > 200 | 41 (≈ 24.8 µg/mL) | > 300 | > 50 | > 200 | > 100 | 41 (≈ 24.8 µg/mL) | > 100 | – | – | – | – | – | – | – | –
CO[C@@H]1[C@@H](OC(N)=O)[C@@H](O)[C@H](Oc2ccc3c(O)c(NC(=O)c4cc(-c5ccccc5)ccc4O)c(=O)oc3c2C)OC1(C)C [Compound 87] | – | – | – | – | – | – | – | – | 20 (≈ 12.4 µg/mL) | 20 (≈ 12.4 µg/mL) | 18 (≈ 11.2 µg/mL) | >50 | 18 (≈ 11.2 µg/mL) | >100 | 20 (≈ 12.4 µg/mL) | 40 (≈ 24.8 µg/mL)
CO[C@@H]1[C@@H](OC(N)=O)[C@@H](O)[C@H](Oc2ccc3c(O)c(NC(=O)c4cc(-c5ccc6ccccc6c5)cc(O)c4O)c(=O)oc3c2C)OC1(C)C [Compound 98] | – | – | – | – | – | – | – | – | >200 | 18 (≈ 12.4 µg/mL) | >300 | 36 (≈ 24.7 µg/mL) | >200 | >100 | 18 (≈ 12.4 µg/mL) | >100
CO[C@@H]1[C@@H](OC(N)=O)[C@@H](O)[C@H](Oc2ccc3c(O)c(NC(=O)CCc4ccccc4)c(=O)oc3c2C)OC1(C)C [Compound 43] | > 200 | > 100 | > 300 | > 50 | > 200 | > 100 | > 100 | > 100 | – | – | – | – | – | – | – | –
CO[C@@H]1[C@@H](OC(N)=O)[C@@H](O)[C@H](Oc2ccc3c(O)c(NC(=O)c4cccc(-c5ccccc5)c4)c(=O)oc3c2C)OC1(C)C [Compound 1] | 41 (≈ 24.8 µg/mL) | 5 (≈ 3.02 µg/mL) | 26 (≈ 15.7 µg/mL) | > 50 | 26 (≈ 15.7 µg/mL) | > 100 | 5 (≈ 3.02 µg/mL) | > 100 | – | – | – | – | – | – | – | –
CO[C@@H]1[C@@H](OC(N)=O)[C@@H](O)[C@H](Oc2ccc3c(O)c(NC(=O)c4cccc(-c5ccc(N(C)C)cc5)c4)c(=O)oc3c2C)OC1(C)C [Compound 25] | > 200 | 0.96 (≈ 0.622 µg/mL) | > 300 | 19 (≈ 12.3 µg/mL) | > 200 | > 100 | 0.96 (≈ 0.622 µg/mL) | > 100 | – | – | – | – | – | – | – | –
CO[C@@H]1[C@@H](OC(N)=O)[C@@H](O)[C@H](Oc2ccc3c(O)c(NC(=O)c4ccc5ccn(C)c5c4)c(=O)oc3c2C)OC1(C)C [Compound 70] | – | – | – | – | – | – | – | – | >200 | 86 (≈ 50 µg/mL) | >300 | >50 | >200 | >100 | 43 (≈ 25 µg/mL) | >100
CO[C@@H]1[C@@H](OC(N)=O)[C@@H](O)[C@H](Oc2ccc3c(O)c(NC(=O)c4cccc(-c5ccc(OC(F)(F)F)cc5)c4)c(=O)oc3c2C)OC1(C)C [Compound 57] | – | – | – | – | – | – | – | – | >200 | 1.45 (≈ 0.998 µg/mL) | >300 | 18 (≈ 12.4 µg/mL) | >200 | >100 | 0.91 (≈ 0.627 µg/mL) | >100
CO[C@@H]1[C@@H](OC(N)=O)[C@@H](O)[C@H](Oc2ccc3c(O)c(NC(=O)C45CC6CC(CC(C6)C4)C5)c(=O)oc3c2C)OC1(C)C [Compound 14] | > 200 | 43 (≈ 25.2 µg/mL) | > 300 | > 50 | > 200 | > 100 | 21 (≈ 12.3 µg/mL) | > 100 | – | – | – | – | – | – | – | –
CO[C@@H]1[C@@H](OC(N)=O)[C@@H](O)[C@H](Oc2ccc3c(O)c(NC(=O)c4ccc(O)c(C/C=C/C(=O)O)c4)c(=O)oc3c2C)OC1(C)C [Compound 82] | – | – | – | – | – | – | – | – | >200 | >100 | >300 | >50 | >200 | >100 | >100 | >100

Reference: patent US11713335B2, “Aminocoumarin compounds and methods of their use” (President and Fellows of Harvard College, priority 2018, dated 2023)
